Data set [1] deals with T1, Short transient receptor potential channel 4 (Mus musculus, UniProt Q9QUQ5).
T1 sequence (Q9QUQ5 whole entry): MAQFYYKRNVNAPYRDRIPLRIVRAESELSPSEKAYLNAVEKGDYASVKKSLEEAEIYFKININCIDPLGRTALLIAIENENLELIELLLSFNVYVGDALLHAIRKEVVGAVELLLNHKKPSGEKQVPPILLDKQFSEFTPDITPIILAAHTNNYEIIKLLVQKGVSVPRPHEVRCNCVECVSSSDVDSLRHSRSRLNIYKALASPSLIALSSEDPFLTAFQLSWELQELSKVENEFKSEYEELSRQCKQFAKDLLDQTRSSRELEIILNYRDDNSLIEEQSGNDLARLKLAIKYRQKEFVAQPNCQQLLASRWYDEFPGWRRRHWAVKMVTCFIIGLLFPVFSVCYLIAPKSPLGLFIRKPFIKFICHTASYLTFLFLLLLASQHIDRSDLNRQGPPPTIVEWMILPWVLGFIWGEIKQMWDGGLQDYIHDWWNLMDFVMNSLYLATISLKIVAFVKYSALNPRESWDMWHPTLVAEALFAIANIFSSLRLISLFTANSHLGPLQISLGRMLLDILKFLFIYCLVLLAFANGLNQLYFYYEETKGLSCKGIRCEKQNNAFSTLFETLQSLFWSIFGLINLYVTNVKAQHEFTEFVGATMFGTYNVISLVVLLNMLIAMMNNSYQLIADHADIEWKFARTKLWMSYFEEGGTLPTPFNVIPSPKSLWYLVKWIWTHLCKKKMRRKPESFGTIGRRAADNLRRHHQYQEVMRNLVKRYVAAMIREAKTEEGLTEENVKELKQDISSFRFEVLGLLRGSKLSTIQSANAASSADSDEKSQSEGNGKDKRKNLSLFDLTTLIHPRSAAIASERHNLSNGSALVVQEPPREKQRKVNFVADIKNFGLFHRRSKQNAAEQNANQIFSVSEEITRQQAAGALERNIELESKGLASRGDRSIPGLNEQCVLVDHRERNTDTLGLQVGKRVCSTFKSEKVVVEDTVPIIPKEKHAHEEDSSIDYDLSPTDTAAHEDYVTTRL
Put plainly: calcium entry via TRPC4 opening agents – cell-based, HEK293 TRPC4/mu-opioid, Fluo-4 calcium, dose response (AID 434937). The class given is functional.

Data set [2] in a line: Luminescence Cell-Based Dose Retest to Confirm Inhibitors of Cancer Stem Cells. [Related pubchem assays (depositor defined):AID2717, AID2721]. The data set is classed as functional. Particulars: Homo sapiens.
Data set [3] concerns the target T2, Ubiquitin-conjugating enzyme E2 N (Homo sapiens, UniProt P61088).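 Also: Dose-response confirmation in a TR-FRET assay detecting UBC13-driven polyubiquitin chain formation, inhibition measured.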
T2 sequence (P61088 whole entry): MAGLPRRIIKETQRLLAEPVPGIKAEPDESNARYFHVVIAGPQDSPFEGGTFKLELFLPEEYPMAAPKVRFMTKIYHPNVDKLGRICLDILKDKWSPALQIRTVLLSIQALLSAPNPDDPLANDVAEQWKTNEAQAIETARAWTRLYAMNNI
The data set is classed as functional.

In data set [4] the target is T3, Microphthalmia-associated transcription factor (Homo sapiens, UniProt O75030).
T3 sequence (O75030 whole entry): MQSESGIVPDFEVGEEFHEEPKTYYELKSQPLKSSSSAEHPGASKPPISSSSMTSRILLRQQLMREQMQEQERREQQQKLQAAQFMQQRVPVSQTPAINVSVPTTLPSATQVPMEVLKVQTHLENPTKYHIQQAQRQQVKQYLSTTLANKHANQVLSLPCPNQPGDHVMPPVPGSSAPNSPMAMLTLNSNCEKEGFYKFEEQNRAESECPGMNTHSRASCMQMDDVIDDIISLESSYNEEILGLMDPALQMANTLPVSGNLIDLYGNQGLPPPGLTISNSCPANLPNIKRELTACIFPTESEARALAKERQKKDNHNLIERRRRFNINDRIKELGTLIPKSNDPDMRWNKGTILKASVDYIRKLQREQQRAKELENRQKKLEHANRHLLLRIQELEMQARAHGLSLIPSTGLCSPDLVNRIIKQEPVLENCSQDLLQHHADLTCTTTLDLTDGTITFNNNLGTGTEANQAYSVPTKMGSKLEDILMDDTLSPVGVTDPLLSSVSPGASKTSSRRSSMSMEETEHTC
Put plainly: reducers of TRPM1 reporter luminescence, concentration series – cell-based, SK-MEL-5, cherry-picked, set 3, MITF inhibitor project, dose response (AID 493073).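 Also: SK-MEL-5 melanoma cells with luciferase driven by the MITF target TRPM1 promoter.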 The class given is functional.

A short description of data set [5]: Trypanosoma cruzi growth suppression in host cells – NIH3T3 host cells, beta-gal luminescence, confirmation (AID 2044).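 Also: intracellular parasites grown in NIH/3T3 mouse fibroblasts as host cells; luminescent beta-galactosidase reporter signal from transgenic T. cruzi replicating inside host cells; inhibitors lower the luminescence signal.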 The data set is classed as functional, cell-based.
Data set [6] is described as follows: NIH3T3 cell viability loss – ATP luminescence, mouse fibroblasts, counter-screen, dose response (AID 2010).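 Also: cells exposed to compound for about 90 hours before reading.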 The class given is functional, cell-based. A general note: Counterscreens check selectivity or assay interference.
Another data set deals with Paired box protein Pax-8 (Homo sapiens, UniProt Q06710). Briefly: PAX8 transcriptional activity inhibition in RMG-I – RMG-I cells, luciferase, cherry-pick, dose response (AID 687027).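 Also: luciferase reporter driven by Pax8 target thyroperoxidase promoter measured by SteadyGlo luminescence.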 The class given is functional, cell-based.
Paired box protein Pax-8, sequence (Q06710 whole entry): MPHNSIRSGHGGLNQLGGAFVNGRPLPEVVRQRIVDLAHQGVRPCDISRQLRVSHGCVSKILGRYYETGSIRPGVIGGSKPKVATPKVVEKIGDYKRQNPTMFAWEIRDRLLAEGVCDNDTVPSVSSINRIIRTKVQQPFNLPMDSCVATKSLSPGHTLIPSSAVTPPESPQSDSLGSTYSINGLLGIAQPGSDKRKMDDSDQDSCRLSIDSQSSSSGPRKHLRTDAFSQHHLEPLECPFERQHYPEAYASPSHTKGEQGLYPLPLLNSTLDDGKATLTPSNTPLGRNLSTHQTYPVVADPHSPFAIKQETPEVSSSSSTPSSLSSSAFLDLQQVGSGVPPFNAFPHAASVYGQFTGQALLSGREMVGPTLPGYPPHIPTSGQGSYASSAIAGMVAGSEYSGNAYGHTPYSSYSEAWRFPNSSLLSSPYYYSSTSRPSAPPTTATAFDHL
Data set [7] can be described thus: viability of PTEN-deleted HCT116 cells – cell-based, HCT116 PTEN knockout, dose response (AID 1047).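 Also: HCT116 colon tumor cells with PTEN knocked out; cells exposed to compound for 60 hours before readout; potency for loss of cell viability measured by luminescence.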 The class given is functional.
Data set [8] in a line: viability of HCT116 lacking mutant beta-catenin – cell-based, human colon tumor, dose response (AID 1045).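 Also: HCT116 colon tumor cells with beta catenin knocked out; cells exposed to compound for 60 hours.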 The class given is functional.
Another data set has as its system INS1. Put plainly: INS-1E survival protection against cytokine death – cell-based, luminescence, retest, dose response (AID 449756).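 Also: cell death triggered by IL-1 beta plus TNF-alpha plus IFN-gamma mixture; protective hits raise ATP signal compared with cytokine alone wells.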 The data set is classed as functional. To be noted: Rattus norvegicus.
Data set [9] deals with Peroxisome proliferator-activated receptor gamma/Nuclear receptor coactivator 2 (Homo sapiens, UniProt P37231). The class given is functional.
For data set [10], the target named is Peroxisome proliferator-activated receptor gamma/Nuclear receptor coactivator 1 (Homo sapiens, UniProt P37231). The class given is functional.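 Also: agonist potency as compounds enhance coactivator SRC-1 recruitment to PPARgamma.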
Peroxisome proliferator-activated receptor gamma/Nuclear receptor coactivator 1, sequence (P37231 whole entry): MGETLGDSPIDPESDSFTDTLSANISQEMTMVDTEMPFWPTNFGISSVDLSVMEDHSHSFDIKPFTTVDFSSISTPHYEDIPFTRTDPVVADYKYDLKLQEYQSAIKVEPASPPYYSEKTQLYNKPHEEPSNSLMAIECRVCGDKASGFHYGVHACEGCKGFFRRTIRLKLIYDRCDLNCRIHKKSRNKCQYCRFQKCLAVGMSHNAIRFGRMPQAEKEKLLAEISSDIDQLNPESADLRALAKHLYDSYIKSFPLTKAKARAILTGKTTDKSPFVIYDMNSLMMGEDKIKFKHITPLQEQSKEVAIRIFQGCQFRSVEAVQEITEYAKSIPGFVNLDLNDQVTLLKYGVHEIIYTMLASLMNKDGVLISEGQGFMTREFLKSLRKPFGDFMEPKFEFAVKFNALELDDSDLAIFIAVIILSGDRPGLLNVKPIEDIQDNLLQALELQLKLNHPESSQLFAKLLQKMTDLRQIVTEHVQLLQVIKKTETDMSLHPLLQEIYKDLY
Peroxisome proliferator-activated receptor gamma/Nuclear receptor coactivator 1, sequence (Q15788 whole entry, further chain): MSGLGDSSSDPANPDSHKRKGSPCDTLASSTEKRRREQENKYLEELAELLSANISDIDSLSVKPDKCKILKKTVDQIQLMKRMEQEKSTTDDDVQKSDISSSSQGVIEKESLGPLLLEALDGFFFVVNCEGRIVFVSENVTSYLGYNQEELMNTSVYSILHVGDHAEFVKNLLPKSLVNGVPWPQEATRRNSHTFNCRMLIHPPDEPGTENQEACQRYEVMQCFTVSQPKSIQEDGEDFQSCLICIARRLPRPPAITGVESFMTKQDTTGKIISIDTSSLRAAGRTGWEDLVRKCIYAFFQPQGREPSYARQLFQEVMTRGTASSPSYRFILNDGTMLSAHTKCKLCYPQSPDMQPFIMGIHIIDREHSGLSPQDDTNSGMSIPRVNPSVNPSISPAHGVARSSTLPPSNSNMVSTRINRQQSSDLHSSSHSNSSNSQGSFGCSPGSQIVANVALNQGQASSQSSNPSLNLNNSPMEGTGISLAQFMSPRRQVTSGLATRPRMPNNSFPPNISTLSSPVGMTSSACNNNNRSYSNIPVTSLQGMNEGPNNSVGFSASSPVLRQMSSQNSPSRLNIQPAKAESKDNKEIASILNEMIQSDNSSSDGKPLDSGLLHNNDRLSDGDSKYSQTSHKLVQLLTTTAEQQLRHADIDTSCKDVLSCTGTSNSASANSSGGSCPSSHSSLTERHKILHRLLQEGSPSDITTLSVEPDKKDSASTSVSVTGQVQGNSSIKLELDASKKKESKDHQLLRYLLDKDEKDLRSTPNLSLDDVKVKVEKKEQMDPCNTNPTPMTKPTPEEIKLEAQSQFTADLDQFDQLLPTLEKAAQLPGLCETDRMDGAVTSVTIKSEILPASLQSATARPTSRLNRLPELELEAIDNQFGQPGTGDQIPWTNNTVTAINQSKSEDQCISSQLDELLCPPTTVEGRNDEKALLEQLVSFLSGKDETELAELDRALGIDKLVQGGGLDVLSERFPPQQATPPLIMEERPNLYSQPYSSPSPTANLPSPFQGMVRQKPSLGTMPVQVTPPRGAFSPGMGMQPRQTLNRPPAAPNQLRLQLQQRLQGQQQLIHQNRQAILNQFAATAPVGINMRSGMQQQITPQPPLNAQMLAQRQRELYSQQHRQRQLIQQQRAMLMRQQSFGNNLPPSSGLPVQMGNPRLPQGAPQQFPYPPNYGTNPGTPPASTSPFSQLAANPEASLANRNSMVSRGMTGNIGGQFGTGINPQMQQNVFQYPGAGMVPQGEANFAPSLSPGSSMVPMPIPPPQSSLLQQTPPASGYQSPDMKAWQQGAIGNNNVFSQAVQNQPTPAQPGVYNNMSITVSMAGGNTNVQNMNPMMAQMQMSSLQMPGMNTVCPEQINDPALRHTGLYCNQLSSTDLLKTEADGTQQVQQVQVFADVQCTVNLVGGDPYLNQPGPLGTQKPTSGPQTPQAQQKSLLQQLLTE
Data set [11] has as its target Peroxisome proliferator-activated receptor gamma/Nuclear receptor coactivator 3 (Homo sapiens, UniProt P37231). The class given is functional.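 Also: agonist potency for raising coactivator recruitment to the receptor.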
Another data set addresses Trypsin (Sus scrofa, UniProt P00761). Briefly: trypsin protease activity blockade – biochemical, quenched peptide fluorescence, cherry-pick, selectivity assay for Rce1 protease inhibitor project, dose response (AID 488789).
A further data set addresses Cytochrome P450 3A4 (Homo sapiens, UniProt P08684).
The target in the next data set is Cytochrome P450 2C9 (Homo sapiens, UniProt P11712).
Cytochrome P450 2C9, sequence (P11712 whole entry): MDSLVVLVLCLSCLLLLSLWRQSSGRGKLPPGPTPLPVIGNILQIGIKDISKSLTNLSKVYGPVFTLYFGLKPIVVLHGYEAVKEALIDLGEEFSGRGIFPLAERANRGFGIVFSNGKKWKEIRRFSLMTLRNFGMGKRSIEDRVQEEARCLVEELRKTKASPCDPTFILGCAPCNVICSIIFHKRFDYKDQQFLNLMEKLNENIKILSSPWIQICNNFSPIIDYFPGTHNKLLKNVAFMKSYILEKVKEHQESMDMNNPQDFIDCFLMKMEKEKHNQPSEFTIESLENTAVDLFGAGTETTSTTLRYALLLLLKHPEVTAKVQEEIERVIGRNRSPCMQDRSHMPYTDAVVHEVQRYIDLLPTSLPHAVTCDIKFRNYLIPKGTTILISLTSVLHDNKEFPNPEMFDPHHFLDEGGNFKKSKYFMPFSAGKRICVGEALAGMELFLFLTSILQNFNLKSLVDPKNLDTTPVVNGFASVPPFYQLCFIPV
Data set [12] in a line: Vero E6 cell cytotoxicity, dose response, cytotoxicity control for non-replicating M. tuberculosis project, secondary assay (AID 492998). The class given is functional, VeroE6. To be noted: Vero C1008.
A further data set in a line: cells. The data set is classed as functional.
The nature of data set [13]: THP-1 cell cytotoxicity, dose response, cytotoxicity control for non-replicating M. tuberculosis project (AID 489025). The data set is classed as functional.
Data set [14] in a line: HEK-293T viability loss after treatment – luminescence, T-cell screen hits, cytotoxicity control for TCR NF-kB inhibitor project, dose response (AID 489026).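 Also: cells exposed to compound about 14 hours before the viability readout.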 The data set is classed as functional, cell-based.

Each structure is given as a SMILES string. Activity calls are given as the source filed them.

Trypsin, sequence (P00761 whole entry): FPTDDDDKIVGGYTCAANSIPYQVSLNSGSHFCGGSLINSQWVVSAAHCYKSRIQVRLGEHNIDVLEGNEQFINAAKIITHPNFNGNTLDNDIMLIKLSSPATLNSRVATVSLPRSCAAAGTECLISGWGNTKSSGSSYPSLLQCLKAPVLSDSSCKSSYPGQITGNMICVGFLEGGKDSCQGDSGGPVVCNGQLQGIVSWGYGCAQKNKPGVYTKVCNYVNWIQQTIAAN
Cytochrome P450 3A4, sequence (P08684 whole entry): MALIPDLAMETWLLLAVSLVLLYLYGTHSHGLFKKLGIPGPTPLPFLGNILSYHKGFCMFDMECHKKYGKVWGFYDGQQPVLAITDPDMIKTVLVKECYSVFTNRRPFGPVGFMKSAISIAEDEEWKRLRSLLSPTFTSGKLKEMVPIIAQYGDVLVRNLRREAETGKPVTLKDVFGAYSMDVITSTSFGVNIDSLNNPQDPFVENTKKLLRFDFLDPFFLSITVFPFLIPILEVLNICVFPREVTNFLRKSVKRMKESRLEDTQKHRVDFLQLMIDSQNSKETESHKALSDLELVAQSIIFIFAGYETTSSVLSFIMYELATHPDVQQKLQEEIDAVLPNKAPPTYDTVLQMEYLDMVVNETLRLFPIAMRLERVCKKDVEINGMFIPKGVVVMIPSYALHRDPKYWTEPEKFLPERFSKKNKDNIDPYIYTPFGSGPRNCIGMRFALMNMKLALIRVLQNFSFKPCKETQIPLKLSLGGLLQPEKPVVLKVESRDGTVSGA

`O=C(C1CCCN(Cc2ccccc2)C1)N1CCc2ccccc2C1` (stereo not drawn): in [1], the concentration giving a half-maximal response (EC50) was 0.133 µM (active).
Turning to `CCN(Cc1ccccc1)S(=O)(=O)c1ccc(C(=O)N(CCCN(C)C)c2nc3c(F)cccc3s2)cc1`, the half-maximal effective concentration (EC50) in [1] is 2.11 µM (active).
With `O=S(=O)(c1ccccc1)c1nnn2c1nc(NC1CCN(Cc3ccccc3)CC1)c1cc(Cl)ccc12`, the concentration giving a half-maximal response (EC50) in data set [1] was 6.68 µM (active).
In the case of `FC(F)(F)c1cc(CCN2CCNC[C@@H]2Cc2ccccc2)cc(C(F)(F)F)c1`, the AC50 in data set [2] is 13.3 µM (active); in data set [4], 12.3 µM (active). In addition, in data set [3], the IC50 is > 20 µM (inactive).
On to `O=C(Nc1ccc(S(=O)(=O)NC2=NCCCCC2)cc1)c1ccc([N+](=O)[O-])s1`, for which the figures for the concentration giving a half-maximal response (EC50) in [5] and in data set [6] were 0.201 µM (active) and 8.46 µM (active), respectively. Also, the figures for the AC50 (in data set [4]; on Paired box protein Pax-8) were 5.11 µM (active) and 5.3 µM (active), respectively.
Take `O=C(N/N=C/c1ccc([N+](=O)[O-])s1)C(O)c1ccccc1` (stereo not drawn): the half-maximal effective concentration (EC50) in data set [5] was 0.306 µM (active); in [7] it was 5.9 µM (active); in data set [6] it was > 60 µM (inconclusive); in data set [8], 5.56 µM (active). Moreover, the figures for the AC50 (in data set [4]; in the data set with INS1) were 4.48 µM (active) and 7.84 µM (active), respectively.
With `O=S(=O)(c1ccccc1)c1cnn2c(C(F)(F)F)cc(-c3ccc(F)cc3)nc12`, the EC50 in data set [9], in data set [10] and in [11] was > 79.4 µM (not active) in each case. Also, the figures for the AC50 at Trypsin, at Cytochrome P450 3A4 and at Cytochrome P450 2C9 were 20.2 µM (active), 3.16 µM (inconclusive) and “inconclusive”, respectively.
On to `CCOc1cc(-c2nnc(NC(=O)c3ccco3)o2)cc(OCC)c1OCC`, for which the 50% cytotoxic concentration (CC50) in [12] is > 20 µM (active). In the data set “cells”, the IC50 is 5.12 µM (active).
Consider `Cc1ccc(/C=N/NC(=O)C2COc3ccccc3O2)s1` (stereo not drawn), for which the values for the CC50 in data set [13] and in [12] were 4.18 µM (active) and 8.33 µM (active), respectively. The values for the IC50 (in data set [14]; in the data set “cells”) were > 80 µM (inactive) and 7.88 µM (active), respectively.

The EC50 is the concentration needed to bring the measured effect to its halfway point. What is called AC50 is the concentration at which the activity in the assay is half-maximal. Broadly, the IC50 is the concentration at which inhibition is half-maximal. For orientation: CC50 means the concentration at which the toxic effect on the cells reaches its halfway point.

For the origin of these results see ChEMBL document CHEMBL1201862, “PubChem BioAssay data set” (2004).
